Measurements as given in US9290457B2, “Substituted dihydropyrimidinones and their use as inhibitors of neutrophil elastase activity” (Boehringer Ingelheim International GmbH, priority 2014, dated 2016).
In brackets after ≈: the same amount, converted by molar mass.

What was measured:
[1] = biological target: T1, neutrophil elastase (Homo sapiens (Human), UniProt P08246); assay: Human Neutrophil Elastase Assay; format: biochemical; conditions: substrate MeOSuc-Ala-Ala-Pro-Val-AMC
Target sequence in this assay (P08246 30-247): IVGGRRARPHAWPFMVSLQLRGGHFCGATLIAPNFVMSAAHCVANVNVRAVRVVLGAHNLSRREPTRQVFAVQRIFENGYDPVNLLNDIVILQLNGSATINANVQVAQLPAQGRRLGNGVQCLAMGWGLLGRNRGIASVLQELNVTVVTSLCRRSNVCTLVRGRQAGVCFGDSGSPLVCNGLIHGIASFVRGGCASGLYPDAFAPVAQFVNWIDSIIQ

[2] = biological target: T1, neutrophil elastase; assay: Neutrophil elastase inhibitory activity in human plasma; format: biochemical; conditions: zymosan-stimulated human plasma, substrate MeOSuc-Ala-Ala-Pro-Val-AMC
Description: Assay for the Determination of Neutrophil Elastase Inhibitory Activity in Human Plasma
Citrated blood from human healthy donors is mixed with zymosan suspension and incubated at room temperature. This leads to the stimulation of neutrophils and the release of neutrophil elastase into the plasma. The stimulated blood is centrifuged to generate the neutrophil elastase enriched plasma.
Preparation of Zymosan Working Solution:
• A single 45 ml blood sample is taken into a 50 ml tube containing citrate (3.13%, 5 mL) and the tube is gently inverted 4 times. • Immediately after blood sampling, zymosan working solution (5 mL) is added. • After the addition of zymosan working solution, the tubes are capped, mixed gently and incubated at 22° C. for 15 min on a shaker at 20 rpm. • Make 10 ml aliquots after the incubation time. • Centrifuge the 15 ml tubes at 800 g for 15 min at 4° C. in a Jouan centrifuge. • Harvest the plasma and make 1-5 ml aliquots. • Store the plasma at −80° C.
Various concentrations of the neutrophil elastase inhibitor are incubated with plasma. Subsequently, the enzyme activity is measured using the fluorogenic substrate MeOSuc-Ala-Ala-Pro-Val-AMC (Bachem Cat. No. I-1270, substrate concentration: 250 μM, pH 7.5, 25 mM TRIS buffer, 250 mM NaCl) in analogous fashion as described for the human neutrophil assay. A dose response curve is generated to calculate the EC50 of the inhibitor. The analysis of the data is performed by the calculation of the percentage of fluorescence in the presence of the test compound compared to the fluorescence of the vehicle control after subtracting the background fluorescence: An inhibitor of the neutrophil elastase enzyme will give values between 100% control (no inhibition) and 0% control (complete inhibition).
Target sequence in this assay (P08246 30-267): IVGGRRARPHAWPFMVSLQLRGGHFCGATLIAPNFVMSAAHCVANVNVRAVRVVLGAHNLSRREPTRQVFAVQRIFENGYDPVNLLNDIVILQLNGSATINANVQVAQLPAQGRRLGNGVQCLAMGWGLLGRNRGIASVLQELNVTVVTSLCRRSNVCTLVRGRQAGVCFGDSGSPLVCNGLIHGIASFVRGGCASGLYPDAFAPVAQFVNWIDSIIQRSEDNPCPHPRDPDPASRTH

[3] = Metabolic stability with human liver microsomes; format: in vitro ADME; conditions: pH 7.6; pooled human liver microsomes, 1 μM compound, 37° C.; read-out: t1/2 INVITRO
Description: Assay for the Determination of Metabolic Stability with Human Liver Microsomes
The metabolic degradation of the test compound is assayed at 37° C. with pooled human liver microsomes. The final incubation volume of 100 μl per time point contains TRIS buffer pH 7.6 (0.1 M), magnesium chloride (5 mM), microsomal protein (1 mg/ml) and the test compound at a final concentration of 1 μM. Following a short preincubation period at 37° C., the reactions are initiated by addition of beta-nicotinamide adenine dinucleotide phosphate, reduced form (NADPH, 1 mM) and terminated by transferring an aliquot into acetonitrile after different time points. Additionally, the NADPH-independent degradation is monitored in incubations without NADPH, terminated at the last time point. The [%] remaining test compound after NADPH independent incubation is reflected by the parameter c(control) (metabolic stability). The quenched incubations are pelleted by centrifugation (10,000 g, 5 min) An aliquot of the supernatant is assayed by LC-MS/MS for the amount of parent compound.
The half-life (t1/2 INVITRO) is determined by the slope of the semilogarithmic plot of the concentration-time profile. The intrinsic clearance (CL_[…]) is calculated by considering the amount of protein in the incubation: CL_[…][μl/min/mg protein]=(ln 2/(half-life[min]*protein content[mg/ml]))*1,000.
The half-life (t1/2 INVITRO) values of selected compounds in the metabolic stability assay human liver microsomes described above are listed in Table 3.

[4] = Drug transport across human Caco-2 cells; format: in vitro ADME; conditions: human, Caco-2, pH 7.2, 37° C.
Text: Assay for Determination of Drug Transport Across Human Caco-2 Cells
The assay provides information on the potential of a compound to pass the cell membrane, on the extent of oral absorption as well as on whether the compound is actively transported by uptake and/or efflux transporters. For the measurement of permeability across polarized, confluent human cancer colon carcinoma cells 2 (Caco-2) cell monolayers grown on permeable filter supports are used as the in vitro absorption model.
Apparent permeability coefficients (PE) of the compounds across the Caco-2 monolayers are measured (pH 7.2, 37° C.) in apical-to-basal (AB) (absorptive) and basal-to-apical (BA) (secretory) transport direction. AB permeability (PEAB) represents drug absorption from the intestine into the blood and BA permeability (PEBA) drug secretion from the blood back into the intestine via both passive permeability as well as active transport mechanisms mediated by efflux and uptake transporters that are expressed on the Caco-2 cells. The compounds are assigned to permeability/absorption classes by comparison of the AB permeabilities with the AB permeabilities of reference compounds with known in vitro permeability and oral absorption in the human. Identical or similar permeabilities in both transport directions indicate passive permeation, vectorial permeability points to additional active transport mechanisms. […] Active transport is concentration-dependently saturable.
Caco-2 cells (1-2*10^5 cells/cm^2 area) are seeded on filter inserts (Costar transwell polycarbonate or PET filters, 0.4 μm pore size) and cultured (DMEM) for 10 to 25 days. Compounds are dissolved in appropriate solvent (like DMSO, 1-20 mM stock solutions). Stock solutions are diluted with HTP-4 buffer (128.13 mM NaCl, 5.36 mM KCl, 1 mM MgSO4, 1.8 mM CaCl2, 4.17 mM NaHCO3, 1.19 mM Na2HPO4x7H2O, 0.41 mM NaH2PO4xH2O, 15 mM HEPES, 20 mM glucose, pH 7.2) to prepare the transport solutions (typically 10 μM compound, final DMSO<=0.5%). The transport solution (TL) is applied to the apical or basolateral donor side for measuring A-B or B-A permeability (3 filter replicates), respectively. The receiver side contains HTP-4 buffer supplemented with 2% BSA. Samples are collected at the start and end of experiment from the donor and at various time intervals for up to 2 hours also from the receiver side for concentration measurement by LC-MS/MS or scintillation counting. Sampled receiver volumes are replaced with fresh receiver solution.
The apparent permeability coefficients (PEAB and PEBA) of selected compounds in the Caco-2 drug transport assay described above are listed in Table 5.

[5] = Aqueous solubility; format: physicochemical; conditions: McIlvaine buffer with 2.5% DMSO, aqueous buffer, kinetic from dmso stock, McIlvaine buffer pH 6.8, 2.5% DMSO
Description: Assay for Determination of Aqueous Solubility
Starting from a 10 mM DMSO stock solution, aliquots are diluted with acetonitrile/water (1/1) and McIlvaine buffer pH 6.8, respectively. After 24 h of shaking, the solutions or suspensions are filtered and analyzed by LC-UV. The amount dissolved in buffer is compared to the amount dissolved in the acetonitrile/water (1/1) solution. Solubility is measured from 0.001 to 0.125 mg/ml at a DMSO concentration of 2.5%. If more than 90% of the compound is dissolved in buffer, the value is marked with “>”.

SMILES	IC50 [1]	further results
CC(=O)C1=C(C)N(c2cccc(C(F)(F)F)c2)C(=O)N(C)C1c1ccc(C#N)cc1-c1nnc(C)o1 (stereo not shown) [Example 8, 4-[5-Acetyl-3,6-dimethyl-2-oxo-1-(3-trifluoromethyl-phenyl)-1,2,3,4-tetrahydro-pyrimidin-4-yl]-3-(5-methyl-[1,3,4]oxadiazol-2-yl)-benzonitrile]	< 1 nM	EC50 [2]: 6 nM; half-life at 1 μM [3]: > 2.17 h; Papp A→B at 10 μM ([4]; apical-to-basal, read-out: PEAB): 770 nm/s; Papp B→A at 10 μM ([4]; basal-to-apical, read-out: PEBA): 630 nm/s; solubility at 24 h [5]: 0.03 mg/mL (≈ 60.5 µM)
CCOC(=O)C1=C(C)N(c2cccc(C(F)(F)F)c2)C(=O)N(C)C1c1ccc(C#N)cc1C1=CCNCC1 (stereo not shown) [Example 15, 4-[4-Cyano-2-(1,2,3,6-tetrahydro-pyridin-4-yl)-phenyl]-3,6-dimethyl-2-oxo-1-(3-trifluoromethyl-phenyl)-1,2,3,4-tetrahydro-pyrimidine-5-carboxylic acid ethyl ester]	3 nM	–
COC(=O)c1cc(C#N)ccc1C1C(C(C)=O)=C(C)N(c2cccc(C(F)(F)F)c2)C(=O)N1C (stereo not shown) [Intermediate 5, 2-[5-Acetyl-3,6-dimethyl-2-oxo-1-(3-trifluoromethyl-phenyl)-1,2,3,4-tetrahydro-pyrimidin-4-yl]-5-cyano-benzoic acid methyl ester]	< 1 nM	–
CC(=O)C1=C(C)N(c2cccc(C(F)(F)F)c2)C(=O)N(C)C1c1ccc(C#N)cc1C(=O)O (stereo not shown) [Intermediate 6, 2-[5-Acetyl-3,6-dimethyl-2-oxo-1-(3-trifluoromethyl-phenyl)-1,2,3,4-tetrahydro-pyrimidin-4-yl]-5-cyano-benzoic acid]	3.93 nM	–

Now from value to compound, other results behind:

IC50 [1]	SMILES	further results
1.9 nM	CCOC(=O)C1=C(C)N(c2cccc(C(F)(F)F)c2)C(=O)N(C)C1c1ccc(C#N)cc1-c1cn[nH]c1 (stereo not shown) [Example 14.2]	–
< 1 nM	CCOC(=O)C1=C(C)N(c2cccc(C(F)(F)F)c2)C(=O)N(C)C1c1ccc(C#N)cc1-c1cnoc1 (stereo not shown) [Example 14.3]	–
1.9 nM	CCOC(=O)C1=C(C)N(c2cccc(C(F)(F)F)c2)C(=O)N(C)C1c1ccc(C#N)cc1C1=COCC1 (stereo not shown) [Example 14.4]	–
< 1 nM	CCOC(=O)C1=C(C)N(c2cccc(C(F)(F)F)c2)C(=O)N(C)C1c1ccc(C#N)cc1-c1cnn(C)c1 (stereo not shown) [Example 14.5]	–
3.1 nM	CCOC(=O)C1=C(C)N(c2cccc(C(F)(F)F)c2)C(=O)N(C)C1c1ccc(C#N)cc1-c1ccnn1C (stereo not shown) [Example 14.6]	–
2.4 nM	CCOC(=O)C1=C(C)N(c2cccc(C(F)(F)F)c2)C(=O)N(C)C1c1ccc(C#N)cc1-c1ccn(C)n1 (stereo not shown) [Example 14.7]	–
< 1 nM	CCOC(=O)C1=C(C)N(c2cccc(C(F)(F)F)c2)C(=O)N(C)C1c1ccc(C#N)cc1-c1ccn(C)c(=O)c1 (stereo not shown) [Example 14.9]	–
